# Earlier results as cited in article PMC3906704 (Journal of molecular biochemistry, 2012).
# Conditions: substitution of Gly6 in GnRH-I; ref Karten & Rivier 1986
substance,measurement,value
"L-Ala^6: GnRH analog with L-Ala^6 substitution (QHWSYALRPG; Gonadoliberin-1; UniProt P01148 24-33, looked up, variant G6A)",Potency relative to native GnRH-I,4%
